Data from article PMC11161644, “An effective and rapidly degradable disinfectant from disinfection byproducts” (Nature Communications, 2024).
Values joined by “and” are separate entries in the source; they are usually repeats but may differ in a detail not shown here. Identical values can stand only once. Like-named read-outs stand apart in the source and are kept apart here.

Tests used:
E. coli (ATCC 25922) = assay: Inactivation of E. coli by disinfectants (membrane filter enumeration, contact time 5 min); type: cell-based, Escherichia coli; conditions: for log reduction at 500 µg/mL: dose 500 mg L-1, 5 min, read-out: Log (N/N0)
How it was run: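 E. coli ATCC 25922 (10^6‒10^7 cells/mL) exposed to a series of DBP doses in 10 mM PBS (pH 7.2; pH effect tested at 6.2, 7.2, 8.2) for 5 min at 22 ± 1 °C. Survivors enumerated by membrane filtration on m-FC medium at 45 °C for 24 h; inactivation relative to undisinfected control.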

S. aureus (ATCC 25923) = assay: Inactivation of S. aureus (contact time 5 min); type: cell-based, Staphylococcus aureus; conditions: Staphylococcus aureus, ATCC25923, 5 min, pH 7.2, S. aureus; dose 300 mg L-1; pH 7.2; contact time 5 min; read-out: Log (N/N0)
How it was run: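 Cells (10^6‒10^7 per mL) in 10 mM PBS pH 7.2 exposed to a series of DBP doses for 5 min at 22 ± 1 °C. Survivors enumerated by membrane filtration and colony counts after 24 h at 37 °C (S. aureus, Tryptone Soya; C. albicans, Sabouraud) relative to undisinfected control.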

P. dumerilii embryos = assay: Developmental toxicity assay with P. dumerilii embryos, dilution factor of in-use concentration (EC50,DF), also after degradation in darkness; type: in vivo, Platynereis dumerilii
How it was run: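 In-use DBP doses (3-log E. coli reduction, pH 7.2) were serially diluted onto embryos at 12 h postfertilization in seawater. Normal development to first larval stage was scored by microscopy at 24 h postfertilization, in duplicate. EC50,DF is the dilution factor giving 50% of control normal development.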

[1] = Degradation in seawater in darkness (pH 6.2, 7.2, 8.2)
How it was run: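 DBP spiked at 10 mg L^−1 into pretreated seawater in foil-wrapped quartz flasks, held at 20 °C in darkness for 0‒120 h with 4 mM phosphate buffer at pH 6.2, 7.2 or 8.2. Aliquots analysed by reversed-phase HPLC-UV (230 or 280 nm); duplicate runs.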

**Q.** Which results are given for Oc1cc(I)c(O)cc1I [2,5-DIHQ, 2,5-diiodohydroquinone]?
**A.** log reduction at 500 µg/mL (E. coli (ATCC 25922); Escherichia coli, ATCC25922, 5 min, pH 6.2, E. coli, pH 6.2): 1.76; log reduction at 500 µg/mL (E. coli (ATCC 25922); Escherichia coli, ATCC25922, 5 min, pH 7.2, E. coli, pH 7.2): 3.66; log reduction at 500 µg/mL (E. coli (ATCC 25922); Escherichia coli, ATCC25922, 5 min, pH 8.2, E. coli, pH 8.2): 5.5; EC (3-log inactivation) (E. coli (ATCC 25922); Escherichia coli, ATCC25922, 5 min, pH 7.2, contact time 5 min, read-out: Dose for achieving 3-log inactivation of E. coli): 459 µg/mL; E. coli inactivation rate constant k (E. coli (ATCC 25922); pH 7.2, contact time 5 min): 0.13 L mg‒1 h‒1; log reduction at 300 µg/mL (S. aureus (ATCC 25923)): 0.792; Normal development (%) (P. dumerilii embryos; dilution factor 86.0274): 0.8729% and 0%; Normal development (%) (P. dumerilii embryos; dilution factor 103.233): 7.707% and 3.405%; Normal development (%) (P. dumerilii embryos; dilution factor 129.041): 16.1617% and 11.8279%; Normal development (%) (P. dumerilii embryos; dilution factor 172.055): 46.0177% and 46.8181%; Normal development (%) (P. dumerilii embryos; dilution factor 258.082): 63.2599% and 58.9623%; Normal development (%) (P. dumerilii embryos; dilution factor 516.165): 88.6525% and 83.3333%; Relative concentration remaining (1 at 0 min) ([1]; pH 6.2, degradation time 0 min): 1; Relative concentration remaining (1 at 0 min) ([1]; pH 6.2, degradation time 15 min): 1.009 and 0.9751; Relative concentration remaining (1 at 0 min) ([1]; pH 6.2, degradation time 30 min): 1.028 and 0.9729; Relative concentration remaining (1 at 0 min) ([1]; pH 6.2, degradation time 60 min): 1.02 and 0.9831; Relative concentration remaining (1 at 0 min) ([1]; pH 6.2, degradation time 90 min): 0.9778 and 1.02; Relative concentration remaining (1 at 0 min) ([1]; pH 6.2, degradation time 120 min): 1 and 0.9297; Relative concentration remaining (1 at 0 min) ([1]; pH 6.2, degradation time 180 min): 0.9306 and 0.9617; Relative concentration remaining (1 at 0 min) ([1]; pH 6.2, degradation time 240 min): 0.9273 and 0.981; Relative concentration remaining (1 at 0 min) ([1]; pH 7.2, degradation time 0 min): 1; Relative concentration remaining (1 at 0 min) ([1]; pH 7.2, degradation time 15 min): 1.0017 and 0.9494; Relative concentration remaining (1 at 0 min) ([1]; pH 7.2, degradation time 30 min): 1.002 and 0.9365; Relative concentration remaining (1 at 0 min) ([1]; pH 7.2, degradation time 45 min): 0.934 and 0.9212; Relative concentration remaining (1 at 0 min) ([1]; pH 7.2, degradation time 60 min): 0.9213 and 0.886; Relative concentration remaining (1 at 0 min) ([1]; pH 7.2, degradation time 90 min): 0.8145 and 0.7791; Relative concentration remaining (1 at 0 min) ([1]; pH 7.2, degradation time 120 min): 0.7145 and 0.6664; Relative concentration remaining (1 at 0 min) ([1]; pH 7.2, degradation time 180 min): 0.5609 and 0.5354; Relative concentration remaining (1 at 0 min) ([1]; pH 8.2, degradation time 0 min): 1; Relative concentration remaining (1 at 0 min) ([1]; pH 8.2, degradation time 3 min): 0.721 and 0.687; Relative concentration remaining (1 at 0 min) ([1]; pH 8.2, degradation time 8 min): 0.4796 and 0.4372; Relative concentration remaining (1 at 0 min) ([1]; pH 8.2, degradation time 12 min): 0.4155 and 0.3689; Relative concentration remaining (1 at 0 min) ([1]; pH 8.2, degradation time 16 min): 0.2998 and 0.2743; Relative concentration remaining (1 at 0 min) ([1]; pH 8.2, degradation time 20 min): 0.2215 and 0.1988; Relative concentration remaining (1 at 0 min) ([1]; pH 8.2, degradation time 25 min): 0.1592 and 0.1253; half-life at 10 mg L−1 ([1]; pretreated seawater in darkness, pH 8.2): 9.6 min; Ln (C/C0) ([1]; seawater pH 8.2, darkness, 0 min): 0
